Results reported in article PMC11945486, “TAS1R2/TAS1R3 Single-Nucleotide Polymorphisms Affect Sweet Taste Receptor Activation by Sweeteners: The SWEET Project” (Nutrients, 2025).
Read-outs that look alike come from different tables or passages of the source. No end group written: not given here.

T1: human TAS1R2-WT/TAS1R3-R247H (Homo sapiens, UniProt Q7RTX0+Q8TE23, R247H)
T1 construct: expressed in transfected cells; host or cells: HEK293T stably expressing Gα16gust44
T1 sequence (Q8TE23 20-839): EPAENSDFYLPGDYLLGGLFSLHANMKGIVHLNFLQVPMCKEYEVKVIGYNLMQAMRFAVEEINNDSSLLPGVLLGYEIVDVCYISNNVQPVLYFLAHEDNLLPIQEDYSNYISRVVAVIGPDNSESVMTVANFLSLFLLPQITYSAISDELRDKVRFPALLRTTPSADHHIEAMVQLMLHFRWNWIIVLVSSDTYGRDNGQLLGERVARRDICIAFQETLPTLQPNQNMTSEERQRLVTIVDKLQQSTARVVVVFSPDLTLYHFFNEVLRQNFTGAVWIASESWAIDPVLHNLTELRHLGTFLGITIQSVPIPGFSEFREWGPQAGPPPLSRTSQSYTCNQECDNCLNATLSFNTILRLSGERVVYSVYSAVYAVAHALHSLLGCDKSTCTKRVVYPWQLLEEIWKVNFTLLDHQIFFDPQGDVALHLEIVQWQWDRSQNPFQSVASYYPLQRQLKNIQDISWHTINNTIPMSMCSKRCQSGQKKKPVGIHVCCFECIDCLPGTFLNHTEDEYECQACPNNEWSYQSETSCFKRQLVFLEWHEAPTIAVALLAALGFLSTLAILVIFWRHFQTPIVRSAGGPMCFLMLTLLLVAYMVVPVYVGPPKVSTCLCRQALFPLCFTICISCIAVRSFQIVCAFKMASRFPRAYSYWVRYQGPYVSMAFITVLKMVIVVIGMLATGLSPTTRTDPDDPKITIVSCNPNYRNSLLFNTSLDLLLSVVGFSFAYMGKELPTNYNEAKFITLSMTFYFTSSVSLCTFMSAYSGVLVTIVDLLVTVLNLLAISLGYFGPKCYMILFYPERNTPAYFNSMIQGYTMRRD
T1 sequence (Q7RTX0 21-852 R247H): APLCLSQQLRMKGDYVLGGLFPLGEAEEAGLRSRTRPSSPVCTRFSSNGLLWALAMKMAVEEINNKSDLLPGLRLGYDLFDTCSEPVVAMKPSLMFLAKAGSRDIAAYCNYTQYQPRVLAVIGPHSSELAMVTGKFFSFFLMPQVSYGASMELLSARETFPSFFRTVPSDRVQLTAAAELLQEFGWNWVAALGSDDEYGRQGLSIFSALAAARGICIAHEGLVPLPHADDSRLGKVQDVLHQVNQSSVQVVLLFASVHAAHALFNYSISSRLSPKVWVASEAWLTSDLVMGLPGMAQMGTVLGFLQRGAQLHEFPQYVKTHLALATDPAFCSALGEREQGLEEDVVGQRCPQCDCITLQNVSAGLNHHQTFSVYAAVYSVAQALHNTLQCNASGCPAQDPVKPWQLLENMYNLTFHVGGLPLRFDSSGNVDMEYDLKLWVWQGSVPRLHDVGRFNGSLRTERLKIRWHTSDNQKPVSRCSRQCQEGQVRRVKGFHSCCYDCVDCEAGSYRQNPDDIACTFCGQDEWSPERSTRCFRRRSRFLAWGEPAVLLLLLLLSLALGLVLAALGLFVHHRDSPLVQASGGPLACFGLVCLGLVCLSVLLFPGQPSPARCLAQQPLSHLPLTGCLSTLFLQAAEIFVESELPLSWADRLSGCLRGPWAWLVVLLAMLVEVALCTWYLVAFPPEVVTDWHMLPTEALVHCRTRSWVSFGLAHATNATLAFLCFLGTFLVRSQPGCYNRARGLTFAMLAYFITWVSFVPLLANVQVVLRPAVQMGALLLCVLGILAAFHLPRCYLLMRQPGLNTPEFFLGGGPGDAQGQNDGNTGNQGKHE

B1: thaumatin (protein)
chain: ATFEIVNRCSYTVWAAASKGDAALDAGGRQLNSGESWTINVEPGTKGGKIWARTDCYFDDSGSGICKTGDCGGLLRCKRFGRPPTTLAEFSLNQYGKDYIDISNIKGFNVPMDFSPTTRGCRGVRCAADIVGQCPAKLKAPGGGCNDACTVFQTSEYCCTTGKCGPTEYSRFFKRLCPDAFSYVLDKPTTVTCPGSSNYRVTFCPTA
modifications: Eight disulfides
notes: sweet-tasting plant protein, E957

Molecular target: T1, human TAS1R2-WT/TAS1R3-R247H
Experiment: Calcium mobilisation assay, TAS1R2-WT with TAS1R3 variant R247H
Format: cell-based
Details: for Max ΔF/F0: maximal signal amplitude
From the text: The coding sequences for TAS1R2 and TAS1R3 were commercially synthesised, and the human codon was optimised for expression in human cells. The coding sequences of human TAS1R2 and TAS1R3 were subcloned and inserted into the mammalian expression vectors pcDNA6/myc-HisA and pcDNA4/myc-HisA (Invitrogen; Thermo Fisher Scientific; Illkirch, France) between the EcoRI and NotI restriction sites, generating the plasmids pcDNA6-TAS1R2 and pcDNA4-TAS1R3, respectively. To increase protein expression in mammalian cells, an upstream start codon was used, which was a sequence called MAX, corresponding to the QBI SP163 element also described in pcDNA4-HisMax (Invitrogen; Thermo Fisher Scientific; Illkirch, France). To measure the expression level of the receptor by immunohistochemistry, we used the FLAG sequence ([…]) in the C-terminal position, which encodes the FLAG tag epitope. SNP variants of TAS1R2 and TAS1R3 were constructed based on […], respectively, using site-directed mutagenesis (Genewiz; Leipzig, Germany).
The HEK293T cells were kindly provided by Jay P. Slack (Givaudan Flavors Corporation; Cincinnati, OH, USA). HEK293T cells stably transfected with Gα16gust44 [43, 67] were seeded in poly-D-lysine-coated clear-bottom black 96-well plates (0.35 × 10^5 cells/well) in high-glucose DMEM supplemented with 2 mM GlutaMAX, 10% dialysed foetal bovine serum with penicillin/streptomycin and G418 (400 μg/mL) at 37 °C and 6.3% CO2 in a humidified atmosphere as previously reported. […] As a negative control, HEK293T cells were mock-transfected with the empty expression vector. After a further 24 h of incubation, the HEK293T cells were washed with C1 buffer (130 mM NaCl, 5 mM KCl, 10 mM HEPES pH 7.4 and 2 mM CaCl2). The 96-well plates containing the cells were then stimulated with sweet-tasting compounds. […] Different concentration ranges were tested depending on the sweet compound injected. The Ca^2+ changes were expressed as fractional changes in fluorescent light intensity: ΔF/F = (F − F0)/F0, where F was the fluorescent light intensity at each point, and F0 was the value of emitted fluorescent light prior to stimulus application. To calculate dose–response relationships, the changes in fluorescence upon stimulus application were averaged, mock-subtracted and baseline-corrected. The dose–response data obtained were adjusted using a 4-parameter logistic equation. The half-maximal effective concentrations (EC50 values) and maximal signal amplitudes were calculated using SigmaPlot software (version 15.0) (Systat Software; San Jose, CA, USA).
For in vitro calcium mobilisation assay performed on hTAS1R2-SNPs, hTAS1R3-SNPs and mTAS1R3-I60T, 6 to 7 concentrations were tested for each sweet compound, plus buffer alone. All concentration–receptor combinations were measured in duplicate, and each experiment was repeated at least 4 times (8 wells/concentration). Results were expressed for each concentration as ΔF/F mean ± SEM and represented as dose–response curves.

Row | Molecule | R1 = Variant EC50/WT EC50 | Max ΔF/F0 | EC50 (read-out: EC50) | EC50 (brazzein)
1 | OC[C@H]1O[C@H](O[C@]2(CCl)O[C@H](CCl)[C@@H](O)[C@@H]2O)[C@H](O)[C@@H](O)[C@H]1Cl [Sucralose] | 1.1 | 0.69 ± 0.01 | 122 ± 2 µM | –
2 | O=S(=O)(O)NC1CCCCC1 [Cyclamate, cyclamate] | – | – | 1520 ± 46 µM | –
3 | C=C(C)[C@@H]1CC=C(/C=N/O)CC1 [Perillartine, perillartine] | 0.6 | 1.26 ± 0.15 | 8.5 ± 3.1 µM | –
4 | C=C1C[C@@]23CC[C@H]4[C@@](C)(CCC[C@@]4(C)C(=O)O[C@@H]4O[C@H](CO)[C@@H](O)[C@H](O[C@@H]5O[C@H](CO)[C@@H](O)[C@H](O)[C@H]5O)[C@H]4O[C@@H]4O[C@H](CO)[C@@H](O)[C@H](O)[C@H]4O)[C@@H]2CC[C@]1(O[C@@H]1O[C@H](CO)[C@@H](O)[C@H](O[C@@H]2O[C@H](CO)[C@@H](O)[C@H](O)[C@H]2O)[C@H]1O[C@@H]1O[C@H](CO)[C@@H](O)[C@H](O)[C@H]1O)C3 [Rebaudioside M, rebaudioside M] | 0.7 | 1.15 ± 0.04 | 29.7 ± 2.6 µM | –
5 | COc1ccc(CCC(=O)c2c(O)cc(O[C@@H]3O[C@H](CO)[C@@H](O)[C@H](O)[C@H]3O[C@@H]3O[C@@H](C)[C@H](O)[C@@H](O)[C@H]3O)cc2O)cc1O [NHDC, neohesperidin dihydrochalcone] | 1.3 | 1.14 ± 0.05 | 65 ± 8.9 µM | –
6 | thaumatin | 0.8 | 0.73 ± 0.08 | – | –
7 | CC1=CC(=O)NS(=O)(=O)O1 [Acesulfame K, acesulfame K] | 1.0 | 0.33 ± 0.01 | 639 ± 17 µM | –
8 | brazzein (QDKCKKVYENYPVSKCQLANQCNYDCKLDKHARSGECFYDEKRNLQCICDYCEY; ends and bridges not checked; cysteine pairing not given here; UniProt P56552 1-54, looked up) [sweet-tasting protein obtained by recombinant production using the yeast Pichia pastoris] | 0.6 | 0.95 ± 0.03 | – | 70.8 ± 8.1 µg/mL
9 | C[C@H](CC[C@@H](O[C@@H]1O[C@H](CO[C@@H]2O[C@H](CO)[C@@H](O)[C@H](O)[C@H]2O)[C@@H](O)[C@H](O)[C@H]1O[C@@H]1O[C@H](CO)[C@@H](O)[C@H](O)[C@H]1O)C(C)(C)O)[C@H]1CC[C@@]2(C)[C@@H]3CC=C4[C@@H](CC[C@H](O[C@@H]5O[C@H](CO[C@@H]6O[C@H](CO)[C@@H](O)[C@H](O)[C@H]6O)[C@@H](O)[C@H](O)[C@H]5O)C4(C)C)[C@]3(C)[C@H](O)C[C@]12C [Mogroside V, mogroside V] | 0.9 | 1.12 ± 0.02 | 28.7 ± 1.6 µM | –
10 | COC(=O)[C@H](Cc1ccccc1)NC(=O)[C@H](CC(=O)O)NCCC(C)(C)C [Neotame] | 0.9 | 0.71 ± 0.02 | 1.12 ± 0.07 µM | –
11 | B1 | – | – | 8.2 ± 2.3 µM | –
